A word on the IC50: it is the concentration that gives 50% inhibition.

Among the data in patent US7566712B2, “Biaryl piperazinyl-pyridine analogues” (Neurogen Corporation, priority 2003, dated 2009) are IC50 values, retold here.

T1 sequence (Q8NER1 whole entry): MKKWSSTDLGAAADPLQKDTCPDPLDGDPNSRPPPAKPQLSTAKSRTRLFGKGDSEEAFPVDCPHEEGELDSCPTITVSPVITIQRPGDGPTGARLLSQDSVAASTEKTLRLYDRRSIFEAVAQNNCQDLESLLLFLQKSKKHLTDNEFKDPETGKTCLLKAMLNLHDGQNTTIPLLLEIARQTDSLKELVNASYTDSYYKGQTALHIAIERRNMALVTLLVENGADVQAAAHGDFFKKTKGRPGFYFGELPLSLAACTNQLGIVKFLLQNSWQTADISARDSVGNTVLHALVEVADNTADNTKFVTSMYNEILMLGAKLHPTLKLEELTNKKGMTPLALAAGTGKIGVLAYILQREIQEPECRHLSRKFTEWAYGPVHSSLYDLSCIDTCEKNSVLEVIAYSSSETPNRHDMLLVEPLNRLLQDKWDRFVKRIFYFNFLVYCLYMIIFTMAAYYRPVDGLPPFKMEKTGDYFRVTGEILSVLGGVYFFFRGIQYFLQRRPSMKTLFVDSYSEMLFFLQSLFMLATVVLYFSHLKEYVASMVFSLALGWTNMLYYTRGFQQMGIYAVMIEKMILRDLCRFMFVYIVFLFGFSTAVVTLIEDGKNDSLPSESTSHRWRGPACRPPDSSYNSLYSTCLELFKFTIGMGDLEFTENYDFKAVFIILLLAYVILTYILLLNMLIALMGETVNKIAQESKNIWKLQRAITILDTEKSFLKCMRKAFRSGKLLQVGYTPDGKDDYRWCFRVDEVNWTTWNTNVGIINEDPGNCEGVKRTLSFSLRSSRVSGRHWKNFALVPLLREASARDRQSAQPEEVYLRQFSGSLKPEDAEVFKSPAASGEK

The first experiment has as its target T1, human capsaicin receptor (Homo sapiens, UniProt Q8NER1).
T1 construct: pBK-CMV expression construct encoding the full length human capsaicin receptor; expressed in transfected cells
Nature of the experiment: Calcium mobilization assay, determination of antagonist activity (Example 6). In kind it is cell-based. As to conditions: Table II; IC50 determined as described in Example 6. The essentials:
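Antagonism measured as inhibition of capsaicin-evoked (final concentration = EC50, from an 8-point 1 nM–3 μM curve) Fluo-3 calcium signal in stable hVR1-HEK293 cells. Test compounds at 1–5 μM final, 0.5–6 h dark preincubation at room temperature. IC50 = concentration giving 50% reduction versus agonist-only response.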
As to `Cc1cccnc1N1CCN(c2cc(-c3cccc(OC(C)C)c3)nc(N3CCOCC3)n2)[C@H](C)C1` [Example 543, 4{4-(3-isopropoxyphenyl)-6-[(2R)-2-methyl-4-(3-methylpyridin-2-yl)piperazin-1-yl]pyrimidin-2-yl}morpholine], the IC50 is at most 1000 nM.
Consider `C[C@@H]1CN(c2ncccc2C(F)(F)F)CCN1c1cc(-c2ccc(Cl)cc2)nc(N2CCOCC2)n1` [Example 484, 4-(4-(4-chlorophenyl)-6-{(2R)-2-methyl-4-[3-(trifluoromethyl)pyridin-2-yl]piperazin-1-yl}pyrimidin-2-yl)morpholine], for which the IC50 was at most 1000 nM.
Same read-out and setting: as for `COc1ccc(C(C)C)cc1-c1nc(N2CCOCC2)nc(N2CCN(c3ccccn3)CC2)n1` [Example 430, 2-(5-isopropyl-2-methoxyphenyl)-4-morpholin-4-yl-6-(4-pyridin-2-ylpiperazin-1-yl)-1,3,5-triazine], the figure is at most 1000 nM.
For the molecule `Cc1ccc(-c2cc(N3CCN(c4ncccc4C#N)C[C@H]3C)nc(N3CCOCC3)n2)cc1C` [Example 506, 2-{(3R)-4-[6-(3,4-dimethylphenyl)-2-morpholin-4-ylpyrimidin-4-yl]-3-methylpiperazin-1-yl}nicotinonitrile], the IC50 was at most 1000 nM.
The same measure, in the same setting: to `C[C@@H]1CN(c2ncccc2C#N)CCN1c1cc(-c2cccc(OC(F)(F)F)c2)nc(N2CCOCC2)n1` [Example 532, 2-((3R)-3-methyl-4-{2-morpholin-4-yl-6-[3-(trifluoromethoxy)phenyl]pyrimidin-4-yl}piperazin-1-yl)nicotinonitrile] belongs at most 1000 nM.

Still in this experiment, the particulars now being: Table II; IC50 determined as described in Example 6 (antagonist activity, calcium mobilization).
Take `C[C@@H]1CCCN1c1nc(-c2ccc(F)c(Cl)c2)cc(N2CCN(c3nccnc3Cl)C[C@@H]2C)n1` [Example 973, 4-(3-chloro-4-fluorophenyl)-6-[(2S)-4-(3-chloropyrazin-2-yl)-2-methylpiperazin-1-yl]-2-[(2R)-2-methylpyrrolidin-1-yl]pyrimidine]: the IC50 is at most 1000 nM.
Same read-out and setting: as for `C[C@H]1CN(c2nccnc2Cl)CCN1c1cc(-c2ccc(F)c(Cl)c2)nc(N2CCCC2)n1` [Example 974, 4-(3-chloro-4-fluorophenyl)-6-[(2S)-4-(3-chloropyrazin-2-yl)-2-methylpiperazin-1-yl]-2-pyrrolidin-1-ylpyrimidine], the figure is at most 1000 nM.
Same read-out and setting: to `CC1CCCN1c1nc(-c2ccc(F)cc2)cc(N2CCN(c3nc(Cl)ccc3Cl)C[C@H]2C)n1` (stereo partly drawn) [Example 1011, 4-[4-(3,6-dichloropyridin-2-yl)-2-methylpiperazin-1-yl]-6-(4-fluorophenyi)-2-(2-methylpyrrolidin-1-yl)pyrimidine] belongs at most 1000 nM.

The same experiment, now with this note: Table II; determined as described in Example 6 (antagonist activity); "*" = 1 micromolar or less.
Take `Cc1cc(-c2cc(N3CCCC3C)nc(N3CCN(c4ncccc4Cl)C[C@@H]3C)n2)ccc1F` (stereo partly drawn) [Example 917, 2-[4-(3-chloropyridin-2-yl)-2-methylpiperazin-1-yl]-4-(4-fluoro-3-methylphenyl)-6-(2-methylpyrrolidin-1-yl)pyrimidine]: the IC50 was at most 1000 nM.
Same read-out and setting: to `C[C@@H]1CN(c2nccnc2Cl)CCN1c1cc(-c2ccc(F)c(F)c2)nc(Cl)n1` (stereo in doubt) [Example 823, 2-chloro-4-[4-(3-chloropyrazin-2-yl)-2-methylpiperazin-1-yl]-6-(3,4-difluorophenyl)pyrimidine] belongs at most 1000 nM; to `C[C@@H]1CN(c2nccnc2Cl)CCN1c1cc(-c2ccc(F)c(F)c2)nc(N2CCCC2)n1` [Example 820, 4-[(2R)-4-(3-chloropyrazin-2-yl)-2-methylpiperazin-1-yl]-6-(3,4-difluorophenyl)-2-pyrrolidin-1-ylpyrimidine], at most 1000 nM.
The same measure, in the same setting: as for `COc1ncc(Cl)c(N2CCN(c3cc(-c4ccc(F)cc4)nc(N4CCC[C@H]4C)n3)[C@H](C)C2)n1` [Example 966, 5-chloro-4-((3R)-4-{6-(4-fluorophenyl)-2-[(2R)-2-methylpyrrolidin-1-yl]pyrimidin-4-yl}-3-methylpiperazin-1-yl)-2-methoxypyrimidine], the figure is at most 1000 nM; as for `CC1CCCN1c1nc(-c2ccc(F)c(F)c2)cc(N2CCN(c3ccncc3Cl)C[C@H]2C)n1` (stereo partly drawn) [Example 828, 4-[4-(3-chloropyridin-4-yl)-2-methylpiperazin-1-yl]-6-(3,4-difluorophenyl)-2-(2-methylpyrrolidin-1-yl)pyrimidine], at most 1000 nM; as for `CC1CCCN1c1nc(-c2ccc(F)c(F)c2)cc(N2CCN(c3ncccc3Cl)C[C@@H]2C)n1` (stereo partly drawn) [Example 922, 4-[(2S)-4-(3-chloropyridin-2-yl)-2-methylpiperazin-1-yl]-6-(3,4-difluorophenyl)-2-(2-methylpyrrolidin-1-yl)pyrimidine], at most 1000 nM.
Same read-out and setting: as for `CN(C)C1CN(c2nc(-c3ccc(F)c(Cl)c3)cc(N3CCN(c4ncccc4C(F)(F)F)CC3)n2)C1` [Example 789, 1-(4-(3-chloro-4-fluorophenyl)-6-{4-[3-(trifluoromethyl)pyridin-2-yl]piperazin-1-yl}pyrimidin-2-yl)-N,N-dimethylazetidin-3-amine], the figure is at most 1000 nM; as for `CC1CCN1c1nc(-c2cncc(Cl)c2)cc(N2CCN(c3ncccc3Cl)C[C@H]2C)n1` (stereo partly drawn) [Example 855, 4-(5-chloropyridin-3-yl)-6-[4-(3-chloropyridin-2-yl)-2-methylpiperazin-1-yl]-2-(2-methylazetidin-1-yl)pyrimidine], at most 1000 nM.
Regarding `C[C@@H]1CN(c2ncccc2Cl)CCN1c1cc(-c2ccc(F)c(Cl)c2)nc(N2CCC[C@H]2C)n1` [Example 940, 4-(3-chloro-4-fluorophenyl)-6-[(2R)-4-(3-chloropyridin-2-yl)-2-methylpiperazin-1-yl]-2-[(2R)-2-methylpyrrolidin-1-yl]pyrimidine], the IC50 was at most 1000 nM.
The same measure, in the same setting: as for `COc1ncc(Cl)c(N2CCN(c3cc(-c4ccc(F)cc4)nc(Cl)n3)[C@H](C)C2)n1` [Example 965, 5-chloro-4-{(3R)-4-[2-chloro-6-(4-fluorophenyl)pyrimidin-4-yl]-3-methylpiperazin-1-yl}-2-methoxypyrimidine], the figure is at most 1000 nM; as for `CC1CCCN1c1nc(-c2cccnc2)cc(N2CCN(c3ncccc3Cl)C[C@H]2C)n1` (stereo partly drawn) [Example 882, 4-[4-(3-chloropyridin-2-yl)-2-methylpiperazin-1-yl]-2-(2-methylpyrrolidin-1-yl)-6-pyridin-3-ylpyrimidine], at most 1000 nM.

Staying with this experiment, now noted: determined as described in Example 6 (calcium mobilization, antagonist activity); Table II.
On to `CCN(CC)c1nc(-c2cncc(Cl)c2)cc(N2CCN(c3ncccc3C(F)(F)F)CC2)n1` [Example 595, 4-(5-chloropyridin-3-yl)-N,N-diethyl-6-{4-[3-(trifluoromethyl)pyridin-2-yl]piperazin-1-yl}pyrimidin-2-amine], for which the IC50 was at most 1000 nM.
Same read-out and setting: as for `Cc1cc(-c2cc(N3CCN(c4ncccc4Cl)CC3)nc(N(C)C(C)C)n2)ccc1F` [Example 730, 4-[4-(3-chloropyridin-2-yl)piperazin-1-yl]-6-(4-fluoro-3-methylphenyl)-N-isopropyl-N-methylpyrimidin-2-amine], the figure is at most 1000 nM.
Still for that read-out and setting: as for `Cc1cc(-c2cc(N3CCN(c4ncccc4C(F)(F)F)CC3)nc(N3CCCCC3)n2)ccc1F` [Example 675, 4-(4-fluoro-3-methylphenyl)-2-piperidin-1-yl-6-{4-[3-(trifluoromethyl)pyridin-2-yl]piperazin-1-yl}pyrimidine], the figure is at most 1000 nM; as for `Cc1cc(-c2cc(N3CCN(c4ncccc4C(F)(F)F)CC3)nc(N3CCCC3)n2)ccc1F` [Example 674, 4-(4-fluoro-3-methylphenyl)-2-pyrrolidin-1-yl-6-{4-[3-(trifluoromethyl)pyridin-2-yl]piperazin-1-yl}pyrimidine], at most 1000 nM; as for `CC(=O)c1nc(-c2ccc(F)c(Cl)c2)cc(N2CCN(c3ncccc3C(F)(F)F)CC2)n1` [Example 671, 1-(4-(3-chloro-4-fluorophenyl)-6-{4-[3-(trifluoromethyl)pyridin-2-yl]piperazin-1-yl}pyrimidin-2-yl)ethanone], at most 1000 nM.
Turning to `CCc1nc(C)cn1-c1nc(-c2cccc(Cl)c2)cc(N2CCN(c3ncccc3C(F)(F)F)CC2)n1` [Example 647, 4-(3-chlorophenyl)-2-(2-ethyl-4-methyl-1H-imidazol-1-yl)-6-(4-[3-(trifluoromethyl)pyridin-2-yl]piperazin-1-yl}pyrimidine], the IC50 is at most 1000 nM.
On the same count and under the same terms, as for `CC1CN(c2cc(-c3ccc(F)c(Cl)c3)nc(N3CCOCC3)n2)CCN1c1ccccn1` (stereo not drawn) [Example 632, 4-[4-(3-chloro-4-fluorophenyl)-6-(3-methyl-4-pyridin-2-ylpiperazin-1-yl)pyrimidin-2-yl]morpholine], the figure is at most 1000 nM; as for `COC[C@@H]1CCCN1c1nc(-c2ccc(F)c(C)c2)cc(N2CCN(c3ncccc3C(F)(F)F)C[C@H]2C)n1` [Example 760, 4-(4-fluoro-3-methylphenyl)-2-[(2S)-2-(methoxymethyl)pyrrolidin-1-yl]-6-{(2R)-2-methyl-4-[3-(trifluoromethyl)pyridin-2-yl]piperazin-1-yl}pyrimidine], at most 1000 nM; as for `Cc1cc(-c2cc(N3CCN(c4ncccc4C(F)(F)F)CC3)nc(N(CCO)CCO)n2)ccc1F` [Example 678], at most 1000 nM.
For `CC(=O)N1CCN(c2nc(-c3ccc(F)c(Cl)c3)cc(N3CCN(c4ncccc4C(F)(F)F)CC3)n2)CC1` [Example 625, 2-(4-acetylpiperazin-1-yl)-4-(3-chloro-4-fluorophenyl)-6-{4-[3-(trifluoromethyl)pyridin-2-yl]piperazin-1-yl}pyrimidine], the IC50 is at most 1000 nM.
For `Cc1cc(-c2cc(N3CCN(c4ncccc4C(F)(F)F)CC3)nc(N3CCN(S(C)(=O)=O)CC3)n2)ccc1F` [Example 688, 4-(4-fluoro-3-methylphenyl)-2-[4-(methylsulfonyl)piperazin-1-yl]-6-{4-[3-(trifluoromethyl)pyridin-2-yl]piperazin-1-yl}pyrimidine], the concentration for half-maximal inhibition (IC50) is at most 1000 nM.
